Test [1] deals with late components of human complement (C3-C9). Briefly: Test Code 035 (C3-C9 inhibitor), lysis of EAC 142. The class given is cell-based. The text has this:
(§1) An active inhibitor protects C2 from C1 and C4; (ii) Test Code 035 (C3-C9 inhibitor)--This test determines the ability of the late components of human complement (C3-C9) to lyse EAC 142 in the presence of appropriate dilutions of the test compound. An active inhibitor protects EAC 142 from lysis by human C3-C9; (iii) Test Code 036 (C-Shunt inhibitor)--In this test human erythrocytes rendered fragile are lysed in autologous serum via the shunt pathway activated by cobra venom factor in the presence of appropriate dilutions of the test compound. Inhibition of the shunt pathway results in failure of lysis; (iv) Forssman Vasculitis Test--Here, the well known complement dependent lesion, Forssman vasculitis, is produced in guinea pigs by intradermal injection of rabbit anti-Forssman antiserum. The lesion is measured in terms of diameter, edema and hemorrhage and the extent to which a combined index of these is inhibited by prior intraperitoneal injection of the test compound at 200 mg/kg is then reported, unless otherwise stated; (v) Forssman Shock Test--Lethal shock is produced in guinea pigs by an i.v. injection of anti-Forssman antiserum and the harmonic mean death time of treated guinea pigs is compared with that of simultaneous controls; (vi) Complement Level Reduction Test--In this test, the above dosed guinea pigs, or others, are bled for serum and the complement level is determined in undiluted serum by the capillary tube method of U.S. Pat. No. 3,876,376 and compared to undosed control guinea pigs; and (viii) Cap 50 Test--Here, appropriate amounts of the test compound are added to a pool of guinea pig serum in vitro, after which the undiluted serum capillary tube assay referred to about is run. The concentration of compound inhibiting 50% is reported.

The test system of another test is whole complement. Briefly: Complement Level Reduction Test (in vivo, guinea pig; serum whole complement by capillary tube assay).
From the text: as §1
With reference to Table I. guinea pigs weighing about 300 g were dosed intravenously (i.v.) or intraperitoneally (i.p.) with 200 mg/kg of the test compound dissolved in saline and adjusted to pH 7-8. […] The serum was tested for whole complement using the capillary tube assay. Percent inhibition was calculated by comparison with simultaneous controls. The results appear in Table I together with results of tests code 026, 035, 036, Cap 50, % inhibition and Forssman shock.

For a further test, the target named is T1, activated human C1 (Homo sapiens, UniProt P09871).
T1 construct: fluid-phase human C2 as substrate in presence of C4
T1 sequence (P09871 16-688): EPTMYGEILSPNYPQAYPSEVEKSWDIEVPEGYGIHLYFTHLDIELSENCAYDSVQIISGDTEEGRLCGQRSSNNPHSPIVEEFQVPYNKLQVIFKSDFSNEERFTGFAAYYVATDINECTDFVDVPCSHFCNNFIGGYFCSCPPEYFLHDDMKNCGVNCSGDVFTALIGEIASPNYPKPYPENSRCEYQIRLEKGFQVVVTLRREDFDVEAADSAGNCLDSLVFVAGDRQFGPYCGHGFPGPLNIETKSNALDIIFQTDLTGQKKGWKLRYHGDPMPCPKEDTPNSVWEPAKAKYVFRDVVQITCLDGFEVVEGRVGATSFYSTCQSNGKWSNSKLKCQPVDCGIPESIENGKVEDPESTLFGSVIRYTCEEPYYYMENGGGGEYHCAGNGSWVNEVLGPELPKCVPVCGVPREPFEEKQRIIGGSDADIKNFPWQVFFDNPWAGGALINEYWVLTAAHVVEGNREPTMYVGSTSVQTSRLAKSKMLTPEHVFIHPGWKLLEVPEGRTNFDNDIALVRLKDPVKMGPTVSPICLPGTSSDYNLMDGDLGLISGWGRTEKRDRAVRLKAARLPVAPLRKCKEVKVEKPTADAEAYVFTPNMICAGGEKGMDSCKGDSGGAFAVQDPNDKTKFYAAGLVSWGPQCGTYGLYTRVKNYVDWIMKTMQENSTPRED
T1 sequence (P00736 18-705 partner): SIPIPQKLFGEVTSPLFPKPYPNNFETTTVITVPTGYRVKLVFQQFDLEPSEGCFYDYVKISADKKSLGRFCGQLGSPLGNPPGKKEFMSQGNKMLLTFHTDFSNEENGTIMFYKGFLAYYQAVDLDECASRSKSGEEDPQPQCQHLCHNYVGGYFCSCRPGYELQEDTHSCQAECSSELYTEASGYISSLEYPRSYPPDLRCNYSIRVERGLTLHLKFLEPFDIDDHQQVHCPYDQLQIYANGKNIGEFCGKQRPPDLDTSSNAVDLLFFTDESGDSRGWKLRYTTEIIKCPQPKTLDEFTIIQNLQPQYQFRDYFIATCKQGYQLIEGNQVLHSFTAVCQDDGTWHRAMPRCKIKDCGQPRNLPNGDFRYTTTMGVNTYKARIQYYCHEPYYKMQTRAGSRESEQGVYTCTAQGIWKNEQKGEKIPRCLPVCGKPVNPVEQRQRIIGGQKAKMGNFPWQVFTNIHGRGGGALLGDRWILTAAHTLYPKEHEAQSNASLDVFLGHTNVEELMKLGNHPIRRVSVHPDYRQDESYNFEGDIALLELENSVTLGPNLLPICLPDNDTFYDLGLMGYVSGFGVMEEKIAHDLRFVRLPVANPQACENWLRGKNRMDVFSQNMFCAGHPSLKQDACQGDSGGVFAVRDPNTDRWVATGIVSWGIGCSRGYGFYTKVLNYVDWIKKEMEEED
T1 sequence (P02745 23-245 partner): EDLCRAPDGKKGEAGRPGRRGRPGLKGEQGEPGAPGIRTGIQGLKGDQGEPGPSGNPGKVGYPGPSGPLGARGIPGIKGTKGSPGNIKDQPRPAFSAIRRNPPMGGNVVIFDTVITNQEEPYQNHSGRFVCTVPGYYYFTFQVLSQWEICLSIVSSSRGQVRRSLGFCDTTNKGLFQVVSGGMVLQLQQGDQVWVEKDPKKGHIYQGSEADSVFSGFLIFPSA
T1 sequence (P02746 28-253 partner): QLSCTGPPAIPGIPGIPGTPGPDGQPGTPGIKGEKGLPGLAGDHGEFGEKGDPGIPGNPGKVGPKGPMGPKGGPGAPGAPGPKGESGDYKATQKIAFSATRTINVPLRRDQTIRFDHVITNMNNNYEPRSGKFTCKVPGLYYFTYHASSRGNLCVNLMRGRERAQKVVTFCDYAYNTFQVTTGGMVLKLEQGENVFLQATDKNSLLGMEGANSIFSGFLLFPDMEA
T1 sequence (P02747 29-245 partner): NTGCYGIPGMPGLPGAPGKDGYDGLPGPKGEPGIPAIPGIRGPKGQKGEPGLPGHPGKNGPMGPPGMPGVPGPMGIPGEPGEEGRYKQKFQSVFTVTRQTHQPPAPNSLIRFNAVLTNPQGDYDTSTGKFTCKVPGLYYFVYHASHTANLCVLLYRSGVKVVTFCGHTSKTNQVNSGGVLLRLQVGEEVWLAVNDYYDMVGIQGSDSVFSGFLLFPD
Briefly: Test Code 026 (C1 inhibitor). The class given is biochemical. The conditions noted are these: well number in twofold serial dilution assay, higher = more active.
From the text: as §1

For a further test, the system named is shunt pathway. Nature of the test: Test Code 036 (C-Shunt inhibitor), lysis of human erythrocytes via the shunt pathway activated by cobra venom factor. The class given is cell-based.
From the text: as §1

The next test has as its system complement system. The settings on record: literature, in words; cited from earlier work.
Test [2] deals with hereditary angioneurotic edema. The settings on record: literature, in words; cited from earlier work.
The test system of the next test is human serum complement. The conditions noted are these: in vitro and in vivo; reduction in total hemolytic complement activity; cited from earlier work.
The mark [3] stands for this setting: Table I, well number in twofold serial dilution assay, higher = more active.
The mark [4] stands for this setting: Table II (Intermediates), twofold serial dilution assay.

Structures can show the parent of a compound that is named as a salt.

With `O=C(Nc1cc(C(=O)O)cc(C(=O)Nc2cc(C(=O)O)cc(C(=O)Nc3ccc(S(=O)(=O)O)c4cc(S(=O)(=O)O)cc(S(=O)(=O)O)c34)c2)c1)Nc1cc(C(=O)O)cc(C(=O)Nc2cc(C(=O)O)cc(C(=O)Nc3ccc(S(=O)(=O)O)c4cc(S(=O)(=O)O)cc(S(=O)(=O)O)c34)c2)c1` [5,5'-Ureylenebis[N-[3-carboxy-5-(4,6,8-trisulfo-1-naphthylca] [5,5'-Ureylenebis[N-[3-carboxy-5-(4,6,8-trisulfo-1-naphthaylcarbamoyl)phenyl]isophthalamic acid], decasodium salt], the “C-Late 035 Wells” value in test [1] (setting [3]) was “+2 wells”. Besides, in the test with whole complement (Table I, i.p. 200 mg/kg), the “% Inhibition, Intraperitoneal, 30 minutes” value is listed as -86%; the “% Inhibition, Intraperitoneal, 60 minutes” value (shortened to “% Inhibition … 60 minutes”) is given as -89%; the “% Inhibition, Intraperitoneal, 120 minutes” value is on record as -96%.

With `O=C(Nc1ccc(C(=O)Nc2cc(C(=O)O)cc(C(=O)Nc3ccc(S(=O)(=O)O)c4cc(S(=O)(=O)O)cc(S(=O)(=O)O)c34)c2)c(S(=O)(=O)O)c1)Nc1ccc(C(=O)Nc2cc(C(=O)O)cc(C(=O)Nc3ccc(S(=O)(=O)O)c4cc(S(=O)(=O)O)cc(S(=O)(=O)O)c34)c2)c(S(=O)(=O)O)c1` [5,5'-[Ureylenebis[(2-sulfo-4,1-phenylenecarbonyl)-imino]]bis[N-4,6,8-trisulfo-1-naphthylisophthalamic acid], octasodium salt], on activated human C1 (Table I), the “Cl 026 Wells” value was “+6 wells”. The “C-Late 035 Wells” value in test [1] (setting [3]) is “+2 wells”. Further, the “Shunt Inhibition 036 Wells” value in the test on shunt pathway (setting [3]) is reported as “+5 wells”.

In the case of `Nc1ccc(C(=O)Nc2cc(C(=O)O)cc(C(=O)Nc3ccc(S(=O)(=O)[O-])c4cc(S(=O)(=O)[O-])cc(S(=O)(=O)[O-])c34)c2)c(S(=O)(=O)[O-])c1.[Na+].[Na+].[Na+].[Na+]` [5-(4-Amino-2-sulfobenzamido)-N-(4,6,8-trisulfo-1-naphthyl)isophthalamic acid, tetrasodium salt], the “Cl 026 Wells” value on activated human C1 (Table II (Intermediates)) was “+3 wells”. Also, in test [1] (setting [4]), the “C-Late 035 Wells” value was “N”. Besides, the “Shunt Inhibition 036 Wells” value in the test on shunt pathway (setting [4]) was “N”.

As to `Nc1cc(C(=O)O)cc(C(=O)Nc2cc(C(=O)O)cc(C(=O)Nc3ccc(S(=O)(=O)[O-])c4cc(S(=O)(=O)[O-])cc(S(=O)(=O)[O-])c34)c2)c1.[Na+].[Na+].[Na+]` [5-Amino-3'-carboxy-5'-(4,6,8-trisulfo-1-naphthylcarbamoyl)isophthalanilic acid, trisodium salt], the “Cl 026 Wells” value at activated human C1 (Table II (Intermediates)) is on record as “+3 wells”. For the same compound, the “C-Late 035 Wells” value in test [1] (setting [4]) is given as “N”. The “Shunt Inhibition 036 Wells” value in the test on shunt pathway (setting [4]) is given as “N”.

Turning to `O=C(Nc1ccc(C(=O)Nc2ccc(C(=O)Nc3cc(S(=O)(=O)O)cc4cc(S(=O)(=O)O)cc(S(=O)(=O)O)c34)c(S(=O)(=O)O)c2)c(S(=O)(=O)O)c1)Nc1ccc(C(=O)Nc2ccc(C(=O)Nc3cc(S(=O)(=O)O)cc4cc(S(=O)(=O)O)cc(S(=O)(=O)O)c34)c(S(=O)(=O)O)c2)c(S(=O)(=O)O)c1` [8,8'-[Ureylenebis[(2-sulfo-4,1-phenylenecarbonyl)-imino](2-sulfo-4,1-phenylenecarbonyl)imino]di-1,3,6-naphthalenetrisulfonic acid, decasodium salt], at activated human C1 (Table I), the “Cl 026 Wells” value is “+8 wells”. Further, in test [1] (setting [3]), the “C-Late 035 Wells” value was “+1 wells”. Moreover, in the test on whole complement (Table I, i.p. 200 mg/kg), the “% Inhibition, Intraperitoneal, 30 minutes” value is -68%; the “% Inhibition … 60 minutes” value is recorded as -24%; the “% Inhibition, Intraperitoneal, 120 minutes” value is reported as -14%.

As for `O=C(Nc1ccc(C(=O)Nc2ccc(C(=O)Nc3ccc(S(=O)(=O)[O-])c4cc(S(=O)(=O)[O-])cc(S(=O)(=O)[O-])c34)c(S(=O)(=O)[O-])c2)c(S(=O)(=O)[O-])c1)Nc1ccc(C(=O)Nc2ccc(C(=O)Nc3ccc(S(=O)(=O)[O-])c4cc(S(=O)(=O)[O-])cc(S(=O)(=O)[O-])c34)c(S(=O)(=O)[O-])c2)c(S(=O)(=O)[O-])c1.[Na+].[Na+].[Na+].[Na+].[Na+].[Na+].[Na+].[Na+].[Na+].[Na+]` [8,8'-[Ureylenebis[(2-sulfo-4,1-phenylenecarbonyl)imino(2-sulfo-4,1-phenylenecarbonyl)imino]]di-1,3,5-naphthalenetrisulfonic acid, decasodium salt], the “Cl 026 Wells” value at activated human C1 (Table I) is recorded as “+7 wells”. Besides, the “C-Late 035 Wells” value in test [1] (setting [3]) was “+1 wells”. Moreover, the “Shunt Inhibition 036 Wells” value in the test on shunt pathway (setting [3]) is “+4 wells”. In addition, in the test with whole complement (Table I, i.p. 200 mg/kg), the “% Inhibition, Intraperitoneal, 30 minutes” value is given as -31%; the “% Inhibition … 60 minutes” value is listed as -36%; the “% Inhibition, Intraperitoneal, 120 minutes” value was -58%. In the test with whole complement (Table I, i.v. 200 mg/kg), the “% Inhibition, Intravenous, 2 minutes” value is -38%; the “% Inhibition, Intravenous, 30 minutes” value was -47%; the “% Inhibition, Intravenous, 120 minutes” value is recorded as -22%.

As for `Nc1ccc(C(=O)Nc2ccc(C(=O)Nc3ccc(S(=O)(=O)[O-])c4cc(S(=O)(=O)[O-])cc(S(=O)(=O)[O-])c34)c(S(=O)(=O)[O-])c2)c(S(=O)(=O)[O-])c1.[Na+].[Na+].[Na+].[Na+].[Na+]` [8-[4-(4-Amino-2-sulfobenzamido)-2-sulfobenzamido]-1,3,5-naphthalenetrisulfonic acid, pentasodium salt], at activated human C1 (Table II (Intermediates)), the “Cl 026 Wells” value is given as “+4 wells”. In addition, the “C-Late 035 Wells” value in test [1] (setting [4]) is “N”. For the same compound, the “Shunt Inhibition 036 Wells” value in the test with shunt pathway (setting [4]) is listed as “N”. In addition, in the test with whole complement (Table II (Intermediates), i.p.), the “% Inhibition, Intraperitoneal, 30 minutes” value is on record as -15%; the “% Inhibition … 60 minutes” value is recorded as -17%; the “% Inhibition, Intraperitoneal, 120 minutes” value is recorded as -23%. In addition, in the test with whole complement (Table II (Intermediates), i.v.), the “% Inhibition, Intravenous, 2 minutes” value is -52%; the “% Inhibition, Intravenous, 30 minutes” value is -28%; the “% Inhibition, Intravenous, 120 minutes” value is recorded as -10%.

Consider `Nc1ccc(C(=O)Nc2ccc(C(=O)Nc3cc(S(=O)(=O)[O-])cc4cc(S(=O)(=O)[O-])cc(S(=O)(=O)[O-])c34)c(S(=O)(=O)[O-])c2)c(S(=O)(=O)[O-])c1.[Na+].[Na+].[Na+].[Na+].[Na+]` [8-[4-(4-Amino-2-sulfobenzamido)-2-sulfobenzamido]-1,3,6-naphthalenetrisulfonic acid pentasodium salt], for which the “Cl 026 Wells” value at activated human C1 (Table II (Intermediates)) is recorded as “+5 wells”. The “C-Late 035 Wells” value in test [1] (setting [4]) was “N”. The “Shunt Inhibition 036 Wells” value in the test on shunt pathway (setting [4]) is recorded as “N”. In the test with whole complement (Table II (Intermediates), i.v.), the “% Inhibition, Intravenous, 2 minutes” value was -77%; the “% Inhibition, Intravenous, 30 minutes” value was -43%; the “% Inhibition, Intravenous, 120 minutes” value is -31%.

Turning to `Cc1ccc(C(=O)Nc2ccc(S(=O)(=O)O)c3cc(S(=O)(=O)O)cc(S(=O)(=O)O)c23)cc1NC(=O)c1cccc(NC(=O)Nc2cccc(C(=O)Nc3cc(C(=O)Nc4ccc(S(=O)(=O)O)c5cc(S(=O)(=O)O)cc(S(=O)(=O)O)c45)ccc3C)c2)c1` [Suramin, reference compound], at activated human C1 (Table I), the “Cl 026 Wells” value was “+4 wells”. Moreover, in the test on whole complement (Table I, i.p. 200 mg/kg), the “% Inhibition, Intraperitoneal, 30 minutes” value is -9%; the “% Inhibition … 60 minutes” value is on record as -17%; the “% Inhibition, Intraperitoneal, 120 minutes” value was -44%. For the same compound, in the test on complement system, the “anticomplementary effect / complement inhibition” value is “moderately active as a complement inhibitor”.

As to `Nc1ccc2cc(S(=O)(=O)O)cc(O)c2c1N=Nc1ccc(NC(=O)Nc2ccc(N=Nc3c(N)ccc4cc(S(=O)(=O)O)cc(O)c34)c(S(=O)(=O)O)c2)cc1S(=O)(=O)O` [chloroazol fast pink, 3,3'-ureylenebis[6-(2-amino-8-hydroxy-6-sulfo-1-naphthylazo)benezenesulfonic acid], tetrasodium salt], the “anticomplementary effect / complement inhibition” value in the test with complement system is on record as “anticomplementary effect”.

As for `NCCCCCC(=O)O` [epsilon-aminocaproic acid], the “success in the treatment of hereditary angioneurotic edema” value in test [2] is “used with success in the treatment of hereditary angioneurotic edema”.

`NC[C@H]1CC[C@H](C(=O)O)CC1` [tranexamic acid]: in test [2], the “success in the treatment of hereditary angioneurotic edema” value is reported as “used with success in the treatment of hereditary angioneurotic edema”.

As to heparin, in the test with complement system, the “anticomplementary effect / complement inhibition” value is listed as “anticomplementary effect”.

For pentosan-polysulfoester, the “anticomplementary activity on human serum” value in the test with human serum complement was “anticomplementary activity on human serum, both in vitro and in vivo”.

The record behind these values is patent US4185032A, “Ureylene phenylene anionic naphthalenesulfonic acids” (American Cyanamid Company, priority 1978, dated 1980).
